Laboratory results taken from ChEMBL document CHEMBL5370624 (J Med Chem, 2023).
Active and inactive are the calls of the source. No cut-off for these calls is given here.

Assays:
Toll-like receptor 4 [1] = biological target: T1, Toll-like receptor 4 (Homo sapiens, UniProt O00206); assay: Agonist activity at human TLR4 in human HEK-Blue hTLR4 cells assessed as NF-kappaB activation incubated for 48 hrs by SEAP reporter gene based Quanti-blue assay; type: cell-based
Mus musculus [2] = assay: Immuno-adjuvant activity in H3N2-split A/Victoria/210/2009 influenza virus-immunized BALB/c mouse model assessed as increase in influenza specific serum IgG titer level at 0.001 to 0.1 ug,IM administered on day 0 and 14 and measured after 28 days by ELISA; type: functional, organism-based; settings: dose 0.001-0.1 µg, time 28.0 day
Toll-like receptor 4 [3] = biological target: T2, Toll-like receptor 4 (Mus musculus, UniProt Q9QUK6); assay: Agonist activity at TLR4 in mouse RAW264.7 cells assessed as induction of MIP-1beta release incubated for 24 hrs by ELISA; type: cell-based
T2 sequence (Q9QUK6 whole entry): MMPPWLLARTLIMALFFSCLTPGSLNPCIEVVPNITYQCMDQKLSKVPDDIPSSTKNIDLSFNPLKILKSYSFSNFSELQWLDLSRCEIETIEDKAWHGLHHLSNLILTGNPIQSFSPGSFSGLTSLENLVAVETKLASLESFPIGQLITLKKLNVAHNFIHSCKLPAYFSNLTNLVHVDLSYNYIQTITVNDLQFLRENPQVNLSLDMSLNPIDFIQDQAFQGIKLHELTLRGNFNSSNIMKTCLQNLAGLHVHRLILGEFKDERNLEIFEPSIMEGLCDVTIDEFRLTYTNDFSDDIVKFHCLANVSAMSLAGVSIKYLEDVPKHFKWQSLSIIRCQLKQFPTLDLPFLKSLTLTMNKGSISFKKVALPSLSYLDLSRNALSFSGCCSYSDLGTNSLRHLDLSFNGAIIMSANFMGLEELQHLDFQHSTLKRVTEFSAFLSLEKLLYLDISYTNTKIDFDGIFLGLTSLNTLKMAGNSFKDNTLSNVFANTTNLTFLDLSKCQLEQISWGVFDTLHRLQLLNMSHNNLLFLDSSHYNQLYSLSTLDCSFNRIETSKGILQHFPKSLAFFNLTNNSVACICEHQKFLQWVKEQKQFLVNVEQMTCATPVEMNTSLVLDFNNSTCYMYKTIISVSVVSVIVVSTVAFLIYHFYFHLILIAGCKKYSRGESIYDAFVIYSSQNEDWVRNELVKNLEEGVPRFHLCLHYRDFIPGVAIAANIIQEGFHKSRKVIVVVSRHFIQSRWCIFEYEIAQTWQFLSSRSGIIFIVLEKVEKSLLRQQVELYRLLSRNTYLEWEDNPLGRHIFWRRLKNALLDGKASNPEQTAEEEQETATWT

Toll-like receptor 4 [4] = biological target: T1, Toll-like receptor 4; assay: Agonist activity at TLR4 in human PBMC cells assessed as induction of MIP-1beta release incubated for 20 hrs by ELISA; type: cell-based
Mus musculus [5] = assay: Immuno-adjuvant activity in H3N2-split A/Victoria/210/2009 influenza virus-immunized BALB/c mouse model assessed as increase in influenza specific serum IgG2a titer level at 0.001 to 0.1 ug,IM administered on day 0 and 14 and measured after 28 days by ELISA; type: functional, organism-based; settings: dose 0.001-0.1 µg, time 28.0 day
[6] = Toxicity in H3N2-split A/Victoria/210/2009 influenza virus-immunized BALB/c mouse model assessed as reactogenicity at 0.001 to 0.1 ug,IM administered on day 0 and 14 and measured after 28 days; settings: in vivo, 672 h, dose 0.001-0.1 µg, time 28 day
[7] = Aqueous stability of the compound assessed as drug degradation at 2 to 8 degreeC and measured upto 12 months by RP-HPLC analysis; type: physicochemical; settings: buffer, 8760 h
Mus musculus [8] = species on record: Mus musculus; assay: Immuno-adjuvant activity in H3N2-split A/Victoria/210/2009 influenza virus-immunized BALB/c mouse model assessed as increase in influenza specific serum IgG1 titer level at 0.001 to 0.1 ug,IM and measured after 14 days by ELISA; type: functional, organism-based; settings: dose 0.001-0.1 µg, time 14.0 day
Toll-like receptor 4 [9] = biological target: T1, Toll-like receptor 4; assay: Agonist activity at TLR4 in human PBMC cells assessed as induction of TNFalpha release incubated for 20 hrs by ELISA; type: cell-based
Mus musculus [10] = species on record: Mus musculus; assay: Immuno-adjuvant activity in H3N2-split A/Victoria/210/2009 influenza virus-immunized BALB/c mouse model assessed as increase in influenza specific serum IgG titer level at 0.001 to 0.1 ug,IM and measured after 14 days by ELISA; type: functional, organism-based; settings: dose 0.001-0.1 µg, time 14.0 day
Toll-like receptor 4 [11] = biological target: T1, Toll-like receptor 4; assay: Agonist activity at TLR4 in human PBMC cells assessed as induction of IL-1beta release incubated for 20 hrs by ELISA; type: cell-based
Toll-like receptor 4 [12] = biological target: T1, Toll-like receptor 4; assay: Agonist activity at TLR4 in human PBMC cells assessed as induction of RANTES release incubated for 20 hrs by ELISA; type: cell-based
Mus musculus [13] = species on record: Mus musculus; assay: Immuno-adjuvant activity in H3N2-split A/Victoria/210/2009 influenza virus-immunized BALB/c mouse model assessed as increase in influenza specific serum IgG2a titer level at 0.001 to 0.1 ug,IM and measured after 14 days by ELISA; type: functional, organism-based; settings: dose 0.001-0.1 µg, time 14.0 day
[14] = Toxicity in H3N2-split A/Victoria/210/2009 influenza virus-immunized BALB/c mouse model assessed as abnormality at 0.001 to 0.1 ug,IM administered on day 0 and 14 and measured after 28 days; settings: in vivo, 672 h, dose 0.001-0.1 µg, time 28 day
[15] = Aqueous stability of the compound assessed as drug degradation at 40 degreeC and measured upto 12 months by LC-MS analysis; type: physicochemical
Toll-like receptor 4 [16] = biological target: T1, Toll-like receptor 4; assay: Agonist activity at TLR4 in human MONO-MAC-6 cells assessed as induction of MIP-1beta release incubated for 24 hrs by ELISA; type: cell-based
[17] = Aqueous stability of the compound assessed as drug degradation at 2 to 8 degreeC and measured upto 12 months by LC-MS analysis; type: physicochemical; settings: buffer, 8760 h
Toll-like receptor 4 [18] = biological target: T2, Toll-like receptor 4; assay: Agonist activity at mouse TLR4 in human HEK-Blue mTLR4 cells assessed as NF-kappaB activation incubated for 48 hrs by SEAP reporter gene based Quanti-blue assay; type: cell-based
Mus musculus [19] = assay: Immuno-adjuvant activity in H3N2-split A/Victoria/210/2009 influenza virus-immunized BALB/c mouse model assessed as increase in influenza specific serum IgG1 titer level at 0.001 to 0.1 ug,IM administered on day 0 and 14 and measured after 28 days by ELISA; type: functional, organism-based; settings: dose 0.001-0.1 µg, time 28.0 day
[20] = Aqueous stability of the compound assessed as drug degradation at 40 degreeC and measured after 12 months by RP-HPLC analysis; type: physicochemical; settings: aqueous solution, read-out: Drug degradation
PBMC = assay: Cytotoxicity against human PBMC cells assessed as reduction in cell viability upto 10 ug/ml incubated for 18 to 24 hrs by PrestoBlue reagent based assay; type: toxicity; settings: time 18-24 hrs, dose < 10 µg/ml
Mus musculus [21] = assay: Immuno-adjuvant activity in H3N2-A/HK/68 influenza virus-immunized BALB/c mouse model assessed as increase in survival rate at 10 ug,INH administered 48hrs prior to influenza challenge and measured after 18 days; type: functional; settings: dose 10 µg, time 18 day
[22] = Toxicity in H3N2-A/HK/68 influenza virus-immunized BALB/c mouse model assessed as change in body temperature at 1 to 10 ug,INH administered 48hrs prior to influenza challenge and measured after 18 days; settings: in vivo, inhaled_or_intranasal, 432 h, dose 1-10 µg, time 18 day
[23] = Toxicity in H3N2-A/HK/68 influenza virus-immunized BALB/c mouse model assessed as disease index at 1 to 10 ug,INH administered 48hrs prior to influenza challenge and measured after 18 days; settings: in vivo, inhaled_or_intranasal, 432 h, dose 1-10 µg, time 18 day
[24] = Toxicity in H3N2-A/HK/68 influenza virus-immunized BALB/c mouse model assessed as body weight change at 1 to 10 ug,INH administered 48hrs prior to influenza challenge and measured after 18 days; settings: in vivo, inhaled_or_intranasal, 432 h, dose 1-10 µg, time 18 day
Mus musculus [25] = assay: Immuno-adjuvant activity in H3N2-A/HK/68 influenza virus-immunized BALB/c mouse model assessed as increase in survival rate at 1 ug,INH administered 48hrs prior to influenza challenge and measured after 18 days; type: functional; settings: dose 1 µg, time 18 day

T1 sequence (O00206 whole entry): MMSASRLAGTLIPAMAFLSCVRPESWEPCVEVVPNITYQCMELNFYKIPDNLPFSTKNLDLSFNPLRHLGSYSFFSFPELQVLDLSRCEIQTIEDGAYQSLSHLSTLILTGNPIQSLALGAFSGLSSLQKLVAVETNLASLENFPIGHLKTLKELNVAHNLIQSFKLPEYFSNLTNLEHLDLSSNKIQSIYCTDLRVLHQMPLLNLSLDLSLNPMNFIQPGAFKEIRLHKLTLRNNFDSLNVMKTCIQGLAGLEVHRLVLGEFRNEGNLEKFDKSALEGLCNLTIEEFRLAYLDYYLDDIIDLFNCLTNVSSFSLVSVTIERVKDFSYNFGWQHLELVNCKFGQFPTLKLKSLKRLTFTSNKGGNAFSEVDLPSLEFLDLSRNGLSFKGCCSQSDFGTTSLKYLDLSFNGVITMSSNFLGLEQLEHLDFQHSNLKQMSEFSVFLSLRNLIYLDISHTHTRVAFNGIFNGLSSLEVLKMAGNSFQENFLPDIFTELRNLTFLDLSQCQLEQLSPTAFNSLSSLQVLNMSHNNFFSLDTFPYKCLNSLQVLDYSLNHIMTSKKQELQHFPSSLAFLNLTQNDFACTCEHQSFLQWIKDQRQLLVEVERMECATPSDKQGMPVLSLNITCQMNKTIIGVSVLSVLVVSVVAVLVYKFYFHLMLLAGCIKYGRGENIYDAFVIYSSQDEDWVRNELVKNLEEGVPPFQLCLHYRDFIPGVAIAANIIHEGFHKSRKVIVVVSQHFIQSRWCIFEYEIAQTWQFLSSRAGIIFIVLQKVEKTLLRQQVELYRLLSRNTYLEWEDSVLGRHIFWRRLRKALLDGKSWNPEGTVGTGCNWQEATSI

| Compound | EC50 (Toll-like receptor 4 [1]) | Activity (Mus musculus [2]) | EC50 (Toll-like receptor 4 [3]) | EC50 (Toll-like receptor 4 [4]) | Activity (Mus musculus [5]) | Activity [6] | Stability [7] | Activity (Mus musculus [8]) | EC50 (Toll-like receptor 4 [9]) | Activity (Mus musculus [10]) | EC50 (Toll-like receptor 4 [11]) | EC50 (Toll-like receptor 4 [12]) | Activity (Mus musculus [13]) | Activity [14] | EC50 (Toll-like receptor 4 [16]) | Stability [17] | EC50 (Toll-like receptor 4 [18]) | Activity (Mus musculus [19]) | Activity (PBMC) | further results |
| --- | --- | --- | --- | --- | --- | --- | --- | --- | --- | --- | --- | --- | --- | --- | --- | --- | --- | --- | --- | --- |
| CCCCCCCCCCC[C@H](CC(=O)NCCO[C@@H]1O[C@H](CO)[C@@H](OS(=O)(=O)O)[C@@H](NC(=O)C[C@@H](CCCCCCCCCCC)OC(=O)CCCCCCCCC)[C@H]1NC(=O)C[C@@H](CCCCCCCCCCC)OC(=O)CCCCCCCCC)OC(=O)CCCCCCCCC.CCN(CC)CC | 449 nM | Active | 0.31 nM | 2.87 nM | Active | Non-Toxic | Stable | Dose-Dependent Effect | 116 nM | Dose-Dependent Effect | 20.4 nM | 7.01 nM | Dose-Dependent Effect | Non-Toxic | 39.5 nM | Stable | 2.64 nM | Active | – | degraded at 8760 h ([15]; aqueous solution, read-out: Drug degradation): 8%; degraded at 8760 h [20]: < 10% |
| CCCCCCCCCCC[C@H](CC(=O)N[C@H]1[C@H](OC[C@H](NC(=O)C[C@@H](CCCCCCCCCCC)OC(=O)CCCCCCCCC)C(=O)O)O[C@H](CO)[C@@H](OP(=O)(O)O)[C@@H]1OC(=O)C[C@@H](CCCCCCCCCCC)OC(=O)CCCCCCCCC)OC(=O)CCCCCCCCC | – | – | – | – | – | – | – | – | – | – | – | – | – | – | – | – | – | – | Non-Toxic | – |
| CCCCCCCCCCCCCCCC(=O)O[C@H](CCCCCCCCCCC)CC(=O)N[C@@H]1[C@@H](O)[C@H](O)[C@@H](CO[C@@H]2O[C@H](CO)[C@@H](OP(=O)(O)O)[C@H](OC(=O)C[C@@H](CCCCCCCCCCC)OC(=O)CCCCCCCCCCCCC)[C@H]2NC(=O)C[C@@H](CCCCCCCCCCC)OC(=O)CCCCCCCCCCC)O[C@@H]1O | 246 nM | – | 3.73 nM | 23.7 nM | – | – | – | – | 200 nM | – | 42.4 nM | 31.5 nM | – | – | 6.37 nM | – | 6.54 nM | – | – | – |
| CCCCCCCCCCC[C@H](CC(=O)N[C@H]1[C@H](OC[C@H](NC(=O)C[C@@H](CCCCCCCCCCC)OCCCCCCCCCC)C(=O)O)O[C@H](CO)[C@@H](OP(=O)(O)O)[C@H]1NC(=O)C[C@@H](CCCCCCCCCCC)OCCCCCCCCCC)OCCCCCCCCCC.CCN(CC)CC | 7.86 nM | Active | 0.02 nM | 0.13 nM | Active | Non-Toxic | Stable | Dose-Dependent Effect | 2.6 nM | Dose-Dependent Effect | 0.28 nM | 0.14 nM | Dose-Dependent Effect | Non-Toxic | 0.38 nM | Stable | 0.15 nM | Active | Non-Toxic | Survival (Mus musculus [21]): 80%; Activity [22]: Non-Toxic; Activity [23]: Non-Toxic; Activity [24]: Non-Toxic; Survival (Mus musculus [25]): 40%; Stability ([15]; buffer, 8760 h): Stable |
